Tested on: C57Bl/6J (hIGF1R, Apc^Min/+) mice
Test: Inhibition of polyposis in human IGF1R knock-in Apc Min/+ mice (adenoma number and diameter scored at postnatal day 80)
Format: in vivo
Details: small intestine and colon, 19D12 0.02, 0.1, 0.5 mg/mouse i.p. once a week, celecoxib 150, 500, 1500 ppm in diet
Text: In this example, the ability of anti-IGF1R antibody 19D12 (LCF/HCA: amino acids 20-128 of SEQ ID NO: 8 and 20-137 of SEQ ID NO: 10) to treat familial adenomatous polyposis (FAP) is established in a mouse model for the disease. The model comprises the Apc^Min/+ allele which imparts the FAP phenotype. A phenotype that results from the allele is increased development of intestinal adenomas. The Min mutant mouse has an autosomal dominant heterozygous nonsense mutation in the mouse Apc gene (see e.g., Su et al., Science (Wash D.C.) 256: 668-670 (1992)).
The Min mice are also engineered, by a knock-in mutation, to express the human IGF1R gene. Expression of the IGF1R gene, in the Min mouse, allows determination of the ability of an anti-IGF1R antibody to alleviate the FAP phenotype. […]
Small intestinal adenomas and colonic adenomas are scored for number and diameter at postnatal day 80. […] Small intestine surface area is calculated by summation of the multiples of length of each fixed segment by width, which is measured at the midpoint of each segment. Colon surface area is calculated by multiplying the length of the fixed material from the anorectal junction to the point of insertion of the small intestine, omitting the appendix, by the width at the midpoint. Raw numbers of adenomas observed as well as adenomas per unit of small intestine and colon surface area are calculated.

In the case of “19D12 (LCF/HCA): anti-IGF1R antibody 19D12 (LCF/HCA: amino acids 20-128 of SEQ ID NO: 8 and 20-137 of SEQ ID NO: 10)”, the “adenomas per unit surface area” value is reported as “dose-dependent reduction” and the raw adenoma number is reported as “dose-dependent reduction”.
